# Read-outs that look alike come from different tables or passages of the source.
# Assays:
# [1] = Pharmacokinetic studies in mice, oral administration; format: in vivo, Balb/c mice
# Method: Female Balb/c mice (6-8 weeks old) from Taconic (Germantown, N.Y.) were housed in a controlled environment (12-hours of light/12-hours of dark, 22±1° C., 60±10% relative humidity), which is fully accredited by the USDA. All rodents were housed in microisolator cages (Lab Products, Inc., NJ) containing autoclaved bedding. The mice were allowed free access to autoclaved pellet food and tap water throughout the study. All animal care procedures conformed to the Guide for the Care and Use of Laboratory Animals (National Research Council, National Academy Press, Washington D.C. 1996).
# Sampling time points were 0, 2, 5, 10, 15, 30, 45, 60, 120, 240 and 360 minutes after the gavage.
# (§5) All collected blood samples were heparinized and centrifuged at 7000×g for 5 minutes to separate the plasma fraction from the whole blood. The plasma samples were then processed immediately using the extraction procedure described above.
# (§6) Pharmacokinetic modeling and parameter calculations were carried out using the WinNonlin Professional Version 3.0 (Pharsight, Inc., Mountain, Calif.) pharmacokinetics software (Chen et al., Pharm. Res., 16, 1003 (1999); Chen et al., Pharm. Res., 16, 117 (1999); Chen et al., J. Clin. Pharmacol., 39, 1248 (1999); Uckun et al., Clin. Cancer Res., 5, 2954 (1999); and Uckun et al., J. Pharmacol. Exp. Ther., 291, 1301 (1999)). An appropriate model was chosen on the basis of the lowest sum of weighted squared residuals, the lowest Schwartz Criterion (SC), the lowest Akaike's Information Criterion (AIC) value, the lowest standard errors of the fitted parameters, and the dispersion of the residuals. The elimination half-life was estimated by linear regression analysis of the terminal phase of the plasma concentration-time profile. The area under the concentration-time curve (AUC) was calculated according to the linear trapezoidal rule between the first sampling time (0 hours) and the last sampling time plus C/k, where C is the concentration of the last sampling and k is the elimination rate constant. The systemic clearance (CL) was determined by dividing the dose by the AUC. The metabolic clearance of the parent drug, the formation clearance of the metabolite, the clearance elimination of the metabolite, and the distribution clearance of the metabolite were estimated by simultaneous fitting of the concentration of parent drug and metabolites as a function of time curve to pharmacokinetic models (see FIGS. 7A & 8A) specified as a system of differential equations (Gabrielsson & Weiner, Phamacokinetic/Phamacodynamic Data Analysis: Concepts and Applications, Swedish Pharmaceutical Press (1997)).
# [2] = Octanol/water partition coefficient, shake flask method; format: physicochemical; conditions: 4 hours at room temperature, read-out: Oct/Water (log P)
# Method: HPLC purification was achieved using a reverse-phase Lichrospher column (250×4 mm, Hewlett-Packard, RP-18, Cat. #79925) and an isocratic flow (1 ml/minute) consisting of water (70%) and acetonitrile (30%). Melting points were determined using a Melt John's apparatus and are uncorrected. Column chromatography was performed using silica gel obtained from Baker Company. The octanol/water partition coefficient was determined by the shake flask method. The phosphoramidate analogs were added to 2 ml of water and 2 ml of octanol in a glass vial. The mixture was shaken for 4 hours at room temperature. The two phases were carefully separated and filtered through a Millipore filter and analyzed by HPLC. The partition coefficient was calculated using the ratio of the area under the curve for octanol and water, respectively.
# [3] = system: respiratory syncytial virus (RSV), strain Long; assay: RSV plaque formation assay in HEP-2 cells; format: cell-based; conditions: human respiratory syncytial virus
# Text: (§1) Virus stocks. The HIV-1 strain used in this study was HTLV-IIIB (Uckun et al., 1998 Antimicro. Agents and Chemother., 42:383-388). The non-HIV viruses included in the present study were the gancyclovir-sensitive cytomegalovirus (CMV) strain AD169 (ATCC VR-538); acyclovir-sensitive herpes simplex virus (HSV) Type I strain HF (ATCC VR-260); acyclovir-sensitive HSV Type II strain G (ATCC VR-734); adenovirus strain Type 5, strain adenoid 75 (ATCC VR-5); enterovirus strain, ECHO 30, strain Bastianni (ATCC VR-322); and respiratory syncytial virus (RSV), strain Long (ATCC VR-26).
# (§2) Plaque formation assays. Plaque assays were used to examine the activity of the compounds against non-HIV viruses. The skin fibroblast cell line SF (ATCC CRL-2097) was used as a target for AD169, Adenovirus Type 5. […] cell line (ATCC CCL-81) was used as a target for HSV HF and G. The HEP-2 cell line (ATCC CCL-23) was used as a target for the RSV strain Long. These cell lines were cultured at 1×10^5 cells/well in 24-well (all but ECHO 30-infected SF) or 6-well (ECHO 30-infected SF) tissue culture plates with 0.9% methylcellulose or 0.4% SeaPlaque agarose semisolid support. […] Percent inhibition of plaque formation was calculated by comparing the plaque numbers from the test substance-treated infected cells with the plaque numbers from untreated infected cells (i.e., virus controls). The IC50 values were determined using the Statview statistics program (SAS Institute, Inc., Cary, N.C.).
# (§3) Statistical analysis. […] An IC50 value was calculated from each set of triplicate wells using nonlinear regression modeling of the exponential form of the linearized equation (Statview, SAS Institute, Inc., Cary, N.C.). […]
# (§4) The skin fibroblast cell line SF (ATCC CRL-2097) was used as a target for AD169, Adenovirus Type 5, and ECHO 30; the VERO cell line (ATCC CCL-81) was used as a target for HF and G; and the HEP-2 cell line (ATCC CCL-23) was used as target for the RSV strain Long. Results are expressed as the average IC50 values in μM. […]
# [4] = Pharmacokinetic studies in mice, intravenous administration; format: in vivo, Balb/c mice; conditions: for AUC: read-out: AUC (converted); for Vd: read-out: Vss; for Tmax: read-out: tmax (converted)
# Method: Female Balb/c mice (6-8 weeks old) from Taconic (Germantown, N.Y.) were housed in a controlled environment (12-hours of light/12-hours of dark, 22±1° C., 60±10% relative humidity), which is fully accredited by the USDA. All rodents were housed in microisolator cages (Lab Products, Inc., NJ) containing autoclaved bedding. The mice were allowed free access to autoclaved pellet food and tap water throughout the study.
# Blood samples (˜500 μL) were obtained from the ocular venous plexus by retro-orbital venipuncture at 0, 2, 5, 10, 15, 30, 45, 60, 120, 240 and 360 minutes after intravenous injection.
# as §5, §6
# [5] = system: herpes simplex virus (HSV) Type I strain HF; assay: HSV-1 plaque formation assay in VERO cells; format: cell-based; conditions: Human alphaherpesvirus 1, HSV-1, Strain HF
# Text: as §1, §2, §3, §4
# [6] = system: cytomegalovirus (CMV) strain AD169; assay: CMV plaque formation assay in SF cells; format: cell-based; conditions: Human betaherpesvirus 5
# Text: as §1, §2, §3, §4
# Solubility = format: physicochemical; conditions: read-out: Solubility
# HSV Type II strain G = assay: HSV-2 plaque formation assay in VERO cells; format: cell-based, herpes simplex virus Type II; conditions: Human alphaherpesvirus 2, HSV-2, Strain G
# Text: as §1, §2, §3, §4
# [7] = system: enterovirus strain, ECHO 30, strain Bastianni; assay: Enterovirus plaque formation assay in SF cells; format: cell-based
# Text: as §1, §2, §3, §4
# [8] = system: adenovirus strain Type 5, strain adenoid 75; assay: Adenovirus plaque formation assay in skin fibroblast cell line SF; format: cell-based, human adenovirus
# Text: as §1
# Plaque formation assays. Plaque assays were used to examine the activity of the compounds against non-HIV viruses. The skin fibroblast cell line SF (ATCC CRL-2097) was used as a target for AD169, Adenovirus Type 5. […] cell line (ATCC CCL-81) was used as a target for HSV HF and G. The HEP-2 cell line (ATCC CCL-23) was used as a target for the RSV strain Long. These cell lines were cultured at 1×10^5 cells/well in 24-well (all but ECHO 30-infected SF) or 6-well (ECHO 30-infected SF) tissue culture plates with 0.9% methylcellulose or 0.4% SeaPlaque agarose semisolid support. Minimum Essential Medium (MEM) with Earle's salts (Gibco), L-glutamine, non-essential amino acids, 2% heat-inactivated fetal bovine serum, 1% penicillin/streptomycin, and 0.05% gentamicin served as the culture medium. The incubation times were 3 days for HF, G, ECHO 30, and Long; and 7 days for AD169 and Adenovirus Type 5. Plaque counting was performed with a 20X dissecting microscope for AD169, Type 5, ECHO 30, and RSV Long, and with a light box for HF and G. The fixative agent was crystal violet for all viruses, except for the CMV strain AD169 for which methylene blue was used. Percent inhibition of plaque formation was calculated by comparing the plaque numbers from the test substance-treated infected cells with the plaque numbers from untreated infected cells (i.e., virus controls). The IC50 values were determined using the Statview statistics program (SAS Institute, Inc., Cary, N.C.).
# Statistical analysis. Each drug was tested at 6-7 different concentrations ranging from 0.0001 μM to 100 μM. Each assay was set up in triplicate wells and repeated 1-3 times. An IC50 value was calculated from each set of triplicate wells using nonlinear regression modeling of the exponential form of the linearized equation (Statview, SAS Institute, Inc., Cary, N.C.). […] The IC50 values obtained were correlated to the log transformed hydrolysis rate constants by fitting a linear model (JMP Software, SAS Institute Inc., Cary, N.C.). P-values less than 0.05 were deemed significant.
# The skin fibroblast cell line SF (ATCC CRL-2097) was used as a target for AD169, Adenovirus Type 5, and ECHO 30; the VERO cell line (ATCC CCL-81) was used as a target for HF and G; and the HEP-2 cell line (ATCC CCL-23) was used as target for the RSV strain Long. Results are expressed as the average IC50 values in μM. Stavudine (STV) was included as a control.
# [9] = after i.v. compound 113, model fit, C.V. of modeling in parentheses
# [10] = female, Balb/c, mouse, in vivo, iv, 100 mg/kg, plasma analyte = label, after i.v. 100 mg/kg compound 113, estimate from composite curve of pooled data
# [11] = female, Balb/c, mouse, in vivo, iv, 100 mg/kg, plasma analyte = label, after i.v. 100 mg/kg compound 113, mean ± S.E.M
# [12] = female, Balb/c, mouse, in vivo, iv
# [13] = female, Balb/c, mouse, in vivo, iv, 40 mg/kg, after i.v. 40 mg/kg d4T, estimate from composite curve of pooled data
# [14] = female, Balb/c, mouse, in vivo, iv, 40 mg/kg, after i.v. 40 mg/kg d4T, mean ± S.E.M
# [15] = female, Balb/c, mouse, in vivo, iv, 75 mg/kg, plasma analyte = label, after i.v. 75 mg/kg Ala-d4T-MP, estimate from composite curve of pooled data
# [16] = female, Balb/c, mouse, in vivo, iv, 75 mg/kg, plasma analyte = label, after i.v. 75 mg/kg Ala-d4T-MP, mean ± S.E.M
smiles,measurement,setting,value
"COC(=O)C(C)NP(=O)(OC[C@@H]1C=C[C@H](n2cc(C)c(=O)[nH]c2=O)O1)Oc1ccc(Br)cc1 (stereo partly shown) [Compound 113, 5′-[4-Bromophenyl methoxylaninylphosphate]-2′, 3′-didehydro-3′-deoxy thymidine]",plasma concentration of the parent,"[1]; after oral 100 mg/kg compound 113, below the detection limit",< 0.5 µM
same,logP at 4 h,[2],1.21
same,IC50,[3]; HEp-2,> 100 µM
same,CLm1 (metabolic clearance of compound 113 / formation clearance of Ala-d4T-MP),[4]; [9],83.9 mL/min/kg
same,CLm2 (metabolic clearance of compound 113 / formation clearance of d4T),[4]; [9],87.4 mL/min/kg
same,AUC,[4]; [10],19 µM·h
same,Vd,[4]; [10],0.82 L/kg
same,Cmax,[4]; [11],212 µM
same,clearance,[4]; [11],174 mL/min/kg
same,half-life,[4]; [11],3.6 min
same,AUC,[4]; [11],17.9 µM·h
same,Vd,[4]; [11],0.92 L/kg
same,IC50,[5],> 100 µM
same,IC50,[6],> 100 µM
same,Solubility,Solubility,3 mg/mL
same,IC50,HSV Type II strain G,> 100 µM
same,IC50,[7],> 100 µM
same,IC50,"[8]; Adenovirus Type 5, 7 days, ± s.e., read-out: IC50, ADV-induced plaque formation",0.0223 ± 0.009 µM
same,IC50,"[8]; Skin fibroblast, […], read-out: IC50, ADV-induced plaque formation, Adenovirus Type 5, 7 days, ± s.e.",0.022 ± 0.009 µM
"Cc1cn([C@H]2C=C[C@@H](CO)O2)c(=O)[nH]c1=O [d4T, 2′, 3′-Didehydro-3′-deoxy thymidine, reference compound]",half-life,"[1]; mouse, in vivo, po, mice, orally administered d4T",18 min
same,Tmax,"[1]; mouse, in vivo, po, mice, orally administered d4T, read-out: tmax (converted)",5 min
same,bioavailability,[1]; orally administered d4T,98%
same,logP at 4 h,[2]; octanol/water,-0.59
same,IC50,"[3]; RSV, Strain Long, HEP-2 cells, plaque assay, read-out: IC50",> 100 µM
same,CLme (elimination of d4T derived from Ala-d4T-MP),"[4]; after i.v. Ala-d4T-MP, model fit, C.V. of modeling in parentheses",88.4 (13.0%) ml/min/kg
same,CLme2 (elimination of d4T from the body),[4]; [9],47.1 (74.1%) ml/min/kg
same,CLme2 (elimination of d4T from the body),[4]; [12],62.0 mL/min/kg
same,CLme (elimination of d4T derived from Ala-d4T-MP),[4]; [12],88.4 mL/min/kg
same,fraction of parent converted to the metabolite,[4]; [12],15%
same,fraction of parent converted to the metabolite (fm),[4]; [12],24%
same,Cmax,[4]; [13],280 µM
same,clearance,[4]; [13],15 mL/min/kg
same,half-life,[4]; [13],30.3 min
same,AUC,[4]; [13],204 µM·h
same,Vd,[4]; [13],0.658 L/kg
same,Cmax,[4]; [14],319 µM
same,clearance,[4]; [14],15.2 mL/min/kg
same,half-life,[4]; [14],26.6 min
same,Vd,[4]; [14],0.582 L/kg
same,Cmax,[4]; [15],35.2 µM
same,half-life,[4]; [15],34 min
same,AUC,[4]; [15],31.5 µM·h
same,Tmax,[4]; [15],4.4 min
same,Cmax,[4]; [16],35.9 µM
same,half-life,[4]; [16],32.4 min
same,AUC,[4]; [16],30.3 µM·h
same,Tmax,[4]; [16],5 min
same,Cmax,[4]; [10],15.7 µM
same,half-life,[4]; [10],115 min
same,AUC,[4]; [10],48.6 µM·h
same,Tmax,[4]; [10],18.7 min
same,half-life,[4]; [11],116 min
same,AUC,[4]; [11],47.6 µM·h
same,Tmax,[4]; [11],17.4 min
same,AUC,"[4]; female, Balb/c, mouse, plasma, iv, after i.v. 40 mg/kg d4T, mean ± S.E.M",203 µM·h
same,IC50,[5],> 100 µM
same,IC50,[6],> 100 µM
same,Solubility,Solubility,83 mg/mL
same,IC50,HSV Type II strain G,> 100 µM
same,IC50,"[7]; ECHO 30, SF cells, plaque assay, read-out: IC50",> 100 µM
same,IC50,"[8]; Skin fibroblast, […], Adenovirus Type 5, 7 days, ± s.e., read-out: IC50, ADV-induced plaque formation",12.3 ± 0.3 µM
